# Data taken from patent US8637544B2, “Neurite formation promoter” (Senju Pharmaceutical Co., Ltd., priority 2007, dated 2014).
# Tests used:
# [1] = system: cultured rabbit trigeminal nerve cells; experiment: Promoting effect on neuritogenesis in cultured rabbit trigeminal nerve cells (Test Example 1); type: cell-based; conditions: 0.1 nM (0.026 ng/mL), 48 h culture after addition; mean±SD, N=5; control 29.5±8.7%
# Source text: (§1) Japanese White rabbits (4 days old, male) purchased from Oriental Yeast Co., Ltd. were used.
# N-(1-acetylpiperidin-4-yl)-4-fluorobenzamide (hereinafter referred to as Compound A) was used.
# Rabbit trigeminal nerve cells were isolated according to the report of Chan et al. (Kwan Y. Chan and Richard H. Haschke. Exp. Eye Res. 41: 687-699, 1985). Specifically, a rabbit underwent cardiac perfusion with physiological saline under anesthesia with pentobarbital sodium injection (Dainippon Sumitomo Pharma), after which the trigeminal ganglia thereof were cut out. […]
# (§2) After the 48 hours of cultivation following the addition, the rabbit trigeminal nerve cells were immersed and fixed in 10% neutrally buffered formaldehyde solution at room temperature for 20 minutes. The specimens fixed were fluorescently stained using the anti-neurofilament 200 antibody (Sigma-Aldrich), which specifically recognizes neurofilaments constituting nerve cell bodies and neurites, and the cells stained were examined under a fluorescence microscope (Olympus). Stained cell were incorporated as images from the fluorescence microscope into a computer.
# To evaluate the degree of neuritogenesis in the cultured rabbit trigeminal nerve cells, cell body diameters and neurite lengths were measured on the computer-captured stained cell images using image analysis software (Image-Pro Plus Ver. 4.5.1, Media Cybernetics). […]
# [2] = system: rabbit retinal nerve cells; experiment: Promoting effect on neuritogenesis in rabbit retinal cells (Test Example 2); type: cell-based; conditions: 0.1 nM (0.026 ng/mL), 48 h culture after addition; FIG. 2
# Description: as §1
# A rabbit underwent cardiac perfusion with physiological saline under anesthesia with pentobarbital sodium injection (Dainippon Sumitomo Pharma), after which the eyeballs were extirpated and the retinas were isolated. The retinas isolated were placed in a papain solution (1 mg/mL, Sigma-Aldrich Japan K.K.) suspended in Hanks' balanced salt solution (HBSS, Invitrogen), and subjected to enzymatic digestion at 37° C. for 30 minutes. Thereafter, Leibovitz's L-15 Medium (L-15, Invitrogen) was used to prepare reagents. After the suspension was allowed to stand, the supernatant was discarded, 3 mL of a trypsin inhibitor solution (2 mg/mL trypsin inhibitor, 0.004% DNase and 1 mg/mL Bovine Serum Albumin dissolved in L-15, pH 7.4) was added, and pipetting was performed. After the solution was allowed to stand, the supernatant was discarded, another 3 mL of the trypsin inhibitor solution was added, pipetting was performed, and this operation was once again repeated; centrifugation was performed at 120×g for 5 minutes, and the supernatant was removed. […]
# [3] = system: cultured rabbit trigeminal nerve cells; experiment: Promoting effect on neuritogenesis in cultured rabbit trigeminal nerve cells, concentration series (Test Example 3); type: cell-based; conditions: for Ratio (%) of neuritogenesis cells: 48 h, mean±SD, control 30.4 ± 19.5
# Source text: as §1
# Rabbit trigeminal nerve cells were isolated according to the report by Chan et al. (Kwan Y. Chan and Richard H. Haschke. Exp. Eye Res. 41: 687-699, 1985). Specifically, a rabbit underwent cardiac perfusion with physiological saline under anesthesia with pentobarbital sodium injection (Dainippon Sumitomo Pharma), after which the trigeminal ganglia were cut out. The trigeminal ganglia cut out were washed with Hanks' balanced salt solution (HBSS, Invitrogen), and thereafter treated with 300 μg/mL collagenase-dispase (Roche) at 37° C. for 40 minutes; centrifugation was performed at 120×g for 5 minutes, and the cells were collected. The enzyme reaction was stopped with Neurobasal (registered trademark, Invitrogen) supplemented with EDTA at a final concentration of 0.1%, and the cells were suspended in culture medium, after which centrifugation was performed at 120×g for 5 minutes, and trigeminal nerve cells were prepared.
# The cells prepared were seeded in a 8-well chamber slide coated with polylysine/laminin (Falcon) at about 3×10^3 cells/well; after the seeding, the cells were cultured for 24 hours. After the 24 hours, each of Compound A (final concentration: 0.001 nM (0.00026 ng/mL), 0.1 nM (0.026 ng/ml), 10 nM (2.6 ng/mL), 1000 nM (260 ng/mL)) and NGF (final concentration 1 μg/ml) as a positive control or PBS as a control, was added to the culture medium. After the addition, the cells were further cultured for 48 hours.
# The culture medium used was a Neurobasal containing the B27 supplement (Invitrogen) (final concentration 2% (v/v)), L-glutamine (Invitrogen) (final concentration 1 mM) and cytosine-1-β-D(+)arabinofuranoside (final concentration 10 μM). Culturing conditions were set at a carbon dioxide concentration of 5%, an air concentration of 95%, a humidity of 100%, and a temperature of 37° C.
# as §2, with “of cultivation,” for “of cultivation following the addition,”, “Stained cells” for “Stained cell”
# To evaluate the degree of neuritogenesis in the cultured rabbit trigeminal nerve cells, cell body diameters and neurite lengths were measured on the computer-captured stained cell images using image analysis software (Image-Pro Plus Ver. 4.5.1, Media Cybernetics). Cells having a neurite with a length of not less than twice the diameter of the cell body were regarded as neuritogenesis cells, and the ratio (%) of the cells to the total cell count was calculated (Otori Y, Wei J Y, Barnstable C J. Invest. Opthalmol V is Sci (1998) 39, 972-981).
# [4] = system: corneal sensitivity after corneal flap creation; experiment: Improving effect on rabbit corneal hyposensitivity after corneal flap creation (Test Example 4); type: in vivo; conditions: 1 nM ophthalmic solution, instillation 50 μL four times a day for 6 weeks
# Description: Japanese White rabbits weighing 2.5 to 3.0 kg purchased from KITAYAMA LABES were used. From arrival to the day of test completion, the animals were kept in a breeding room set at a room temperature of 23±3° C., a humidity of 55±10%, and 12-hour lighting (lighted on at 8:00, lighted off at 20:00) at one animal per cage. Each animal was fed up to 100 to 120 g of a solid food (Labo R Stock, Nosan Corporation) a day, and had free access to tap water.
# Compound A was used as a test substance. The test substance was dissolved in the base shown below to obtain a concentration of 1 nM (0.00000026%) to yield an ophthalmic solution. For a control group, the following base, free of the test substance, was administered by instillation.
# 3. Test Procedures 1) Grouping
# On the day before flap creation, the animals were macroscopically examined for the ocular surface and examined for fluorescein-stained spots in the cornea; rabbits with no abnormalities observed therein were selected, and initial values of corneal sensitivity were measured using the Cochet-Bonnet aesthesiometer (manufactured by Luneau). […]
# One week, 2 weeks, 4 weeks or 6 weeks after surgery, corneal sensitivity was measured using the Cochet-Bonnet aesthesiometer. […]
structure (smiles),measurement,setting,value
"CC(=O)N1CCC(NC(=O)c2ccc(F)cc2)CC1 [Compound A, N-(1-acetylpiperidin-4-yl)-4-fluorobenzamide]",ratio of neuritogenesis cells to all cells,[1],63.3±5.2%
same,neuritogenesis in retinal nerve cells stained with anti-neurofilament antibody,[2],Remarkable neuritogenesis was observed
same,Ratio (%) of neuritogenesis cells,[3]; 0.001 nM,33.6 ± 16.3%
same,Ratio (%) of neuritogenesis cells,"[3]; 0.1 nM, *p<0.05 vs control",45.9 ± 15.1* %
same,Ratio (%) of neuritogenesis cells,[3]; 10 nM,37.2 ± 16.5%
same,Ratio (%) of neuritogenesis cells,[3]; 1000 nM,37.0 ± 20.0%
same,optimum concentration for promoting effect on neuritogenesis in trigeminal nerve cells,"[3]; tested at 0.001, 0.1, 10, 1000 nM",0.1 nM
same,time when a sense was observed for the first time after corneal flap creation (first measured value of 5 mm filament length or more),"[4]; average, vehicle group 5.5 weeks",4.1 weeks
same,recovery from decreased corneal sensitivity after flap creation (Cochet-Bonnet aesthesiometer),"[4]; versus vehicle instillation group, FIG. 3",accelerated recovery from decreased corneal sensitivity after flap creation
